For data set [1], the system named is Rat Cardiac Contractility. Briefly: Echocardiography assessment of acute pharmacodynamic effect in rat cardiac contractility (fractional shortening). In kind it is in vivo, Sprague Dawley rats. To be noted: oral gavage, plasma concentration vs fractional shortening, 1 and 4 h post-dose. On the procedure: Assessment of in vivo cardiac function by echocardiography was performed in male Sprague Dawley rats under isoflurane (1-3%) anesthesia. 2-D M-mode images of the left ventricle were acquired in the parasternal long-axis view before, during, and after administration of compounds. In vivo fractional shortening was determined by M-mode image analysis with the following calculation: ((End diastolic diameter−end systolic diameter)[…] end diastolic diameter×100). Three pre-dose baseline M-Mode images were taken at 1-minute intervals prior to compound administration. Compounds were formulated in a 0.5% hydroxypropyl methylcellulose 2910 (HPMC 2910): 0.1% Tween 80 suspension and delivered as a single dose (5 mL/kg) by oral gavage. At one and four hours post-dose, rats were lightly anesthetized for M-mode echocardiography measurement. Concurrent with echocardiography measurements, blood samples were taken to determine the corresponding compound plasma concentrations. The resulting plasma concentrations were used to estimate the IC50 and IC10 values, which is the concentration at which fractional shortening is 50% and 10% of the pre-dose baseline contractility, respectively.

The target of the next data set is T1, CYP2C9 (Homo sapiens, UniProt P11712).
T1 construct: Pooled human microsomes and selective CYP probe substrates were used; from tissue; host or cells: pooled human liver microsomes
T1 sequence (P11712 whole entry): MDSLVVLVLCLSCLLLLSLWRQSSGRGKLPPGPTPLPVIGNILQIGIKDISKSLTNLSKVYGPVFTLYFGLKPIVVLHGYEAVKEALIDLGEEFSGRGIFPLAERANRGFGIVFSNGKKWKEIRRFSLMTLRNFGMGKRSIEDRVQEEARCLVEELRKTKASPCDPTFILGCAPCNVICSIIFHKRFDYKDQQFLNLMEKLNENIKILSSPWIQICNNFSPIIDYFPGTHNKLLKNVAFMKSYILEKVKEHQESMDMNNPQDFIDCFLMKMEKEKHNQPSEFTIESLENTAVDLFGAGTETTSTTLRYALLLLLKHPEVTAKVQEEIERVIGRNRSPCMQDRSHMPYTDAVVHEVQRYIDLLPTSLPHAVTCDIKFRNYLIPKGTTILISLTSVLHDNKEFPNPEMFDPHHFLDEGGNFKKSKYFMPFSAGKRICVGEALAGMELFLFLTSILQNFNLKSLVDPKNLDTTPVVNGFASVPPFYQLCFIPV
Briefly: Time-dependent inhibition of CYP2C9 in human liver microsomes. In kind it is in vitro ADME. To be noted: for (% Activity NADPH T0)/(% Activity NADPH T30): fold change; for activity at 30 min, 25 µM / activity at 0 min, 25 µM / activity at 30 min, 50 µM / activity at 0 min, 50 µM: pooled human liver microsomes, human liver microsomes; for activity at 30 min, 25 µM / activity at 30 min, 50 µM: after 30 minutes incubation, read-out: % Activity NADPH T30; for activity at 0 min, 25 µM / activity at 0 min, 50 µM: time zero, read-out: % Activity NADPH T0. The protocol:
(§1) An assessment of the time-dependent Inhibitory Potential of the test compounds against Principal Human Cytochrome P450 Isozymes using Human Liver Microsomes was also carried out using standard methods (Grimm et al, Drug Metab. Dispos., July; 37(7):1355-70. doi: 10.1124/dmd.109.026716, 2009). Pooled human microsomes and selective CYP probe substrates were used for in vitro assessment of test compounds at 25 and 50 μM as time-dependent inhibitors of […] human hepatic cytochrome P450 isozymes (CYP1A2, 2B6, 2C9, 2C19, 2D6, and 3A4). LC-MS/MS was used to quantify metabolite formation. The inhibition of each P450 enzyme in human liver microsomes was measured as the percentage decrease in the activity of marker metabolite formation as measured by LC-MS/MS compared to non-inhibited controls (=100% activity) at time zero and after 30 minutes incubation. The occurrence of any time dependent inhibition was then expressed as the fold change in enzyme activity at time zero relative to the activity after 30 minutes incubation.
For orientation: Microsomes from liver hold many membrane-bound enzymes, among them those of drug oxidation.

A further data set has as its target T2, CYP2C8 (Homo sapiens, UniProt P10632).
T2 construct: Pooled human microsomes and selective CYP probe substrates were used; from tissue; host or cells: pooled human liver microsomes
T2 sequence (P10632 1-490): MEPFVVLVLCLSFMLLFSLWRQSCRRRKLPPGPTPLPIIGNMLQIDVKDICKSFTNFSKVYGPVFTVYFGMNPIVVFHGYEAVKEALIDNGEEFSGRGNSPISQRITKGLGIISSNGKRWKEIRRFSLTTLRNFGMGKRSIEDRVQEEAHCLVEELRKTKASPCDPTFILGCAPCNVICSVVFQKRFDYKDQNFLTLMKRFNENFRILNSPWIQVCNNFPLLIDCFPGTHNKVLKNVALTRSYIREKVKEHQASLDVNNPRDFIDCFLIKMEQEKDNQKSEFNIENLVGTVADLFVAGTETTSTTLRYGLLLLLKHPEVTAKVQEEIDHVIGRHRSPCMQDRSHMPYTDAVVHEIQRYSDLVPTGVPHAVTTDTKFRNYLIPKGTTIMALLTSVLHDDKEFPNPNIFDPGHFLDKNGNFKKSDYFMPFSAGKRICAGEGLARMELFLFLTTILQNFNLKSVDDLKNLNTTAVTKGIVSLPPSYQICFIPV
Briefly: Time-dependent inhibition of CYP2C8 in human liver microsomes. To be noted: for (% Activity NADPH T0)/(% Activity NADPH T30): fold change; for activity at 30 min, 25 µM / activity at 0 min, 25 µM / activity at 30 min, 50 µM / activity at 0 min, 50 µM: pooled human liver microsomes, human liver microsomes; for activity at 30 min, 25 µM / activity at 30 min, 50 µM: after 30 minutes incubation, read-out: % Activity NADPH T30; for activity at 0 min, 25 µM / activity at 0 min, 50 µM: time zero, read-out: % Activity NADPH T0. The class given is in vitro ADME. The protocol:
as §1

The target in a further data set is T3, CYP2C19 (Homo sapiens, UniProt P33261).
T3 construct: Pooled human microsomes and selective CYP probe substrates were used; from tissue; host or cells: pooled human liver microsomes
T3 sequence (P33261 whole entry): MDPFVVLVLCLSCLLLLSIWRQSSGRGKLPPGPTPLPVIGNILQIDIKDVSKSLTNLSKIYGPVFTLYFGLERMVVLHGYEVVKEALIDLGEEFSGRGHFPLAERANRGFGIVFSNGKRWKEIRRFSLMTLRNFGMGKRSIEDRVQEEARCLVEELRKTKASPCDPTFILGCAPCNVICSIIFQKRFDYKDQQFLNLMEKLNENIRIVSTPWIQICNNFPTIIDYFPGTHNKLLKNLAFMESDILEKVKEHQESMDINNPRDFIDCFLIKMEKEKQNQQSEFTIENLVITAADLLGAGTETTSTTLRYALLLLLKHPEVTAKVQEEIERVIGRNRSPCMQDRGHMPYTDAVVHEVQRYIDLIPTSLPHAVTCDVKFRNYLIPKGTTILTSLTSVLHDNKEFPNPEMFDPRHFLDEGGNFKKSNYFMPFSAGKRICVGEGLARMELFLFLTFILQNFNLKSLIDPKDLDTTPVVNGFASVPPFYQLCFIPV
Briefly: Time-dependent inhibition of CYP2C19 in human liver microsomes. The class given is in vitro ADME. To be noted: for (% Activity NADPH T0)/(% Activity NADPH T30): fold change; for activity at 30 min, 25 µM / activity at 0 min, 25 µM / activity at 30 min, 50 µM / activity at 0 min, 50 µM: pooled human liver microsomes, human liver microsomes; for activity at 30 min, 25 µM / activity at 30 min, 50 µM: after 30 minutes incubation, read-out: % Activity NADPH T30; for activity at 0 min, 25 µM / activity at 0 min, 50 µM: time zero, read-out: % Activity NADPH T0. On the procedure:
as §1

The nature of data set [2]: Dog cassette dosing pharmacokinetics. In kind it is in vivo, beagle dogs. To be noted: male, beagle, plasma, IV; for Vd: read-out: Vss; for half-life: read-out: t½ (converted). On the procedure:
Non-naïve male beagle dogs (8 months to 3 years of age, body weight 8-14 kg) sourced from Jiangsu Johnsen Bioresource CO. and/or Beijing Rixinkeji CO., LTD and/or Beijing Marshall Biotechnology CO., LTD were used in this study. All animals for IV administration had free access to food and water. The IV dose solution was prepared in 10% DMA/50% PG/40% HPβCD solution (40% w/v aqueous HPβCD) at a concentration of 0.2 mg/mL. Concentrations of IV dose was measured at the end of the study. PK parameters were calculated using the nominal dose values if the measured values were within 20% of the nominal values. Blood samples were collected by venipuncture of peripheral veins except the dosing vein at pre-dose, 5 15, 30 min, 1, 2, 4, 6, 8 and 24 h post-dose. Blood samples were centrifuged and resultant plasma was frozen for bioanalysis. Plasma samples were stored at −80° C. before analysis. Plasma samples were analyzed for compound concentrations using the LC/MS/MS method. Briefly, a 50 μL aliquot of each plasma sample was mixed with 100 μL of acetonitrile that contained an internal standard. The mixture was vortexed and centrifuged. Ten (10) μL of the resulting solution was injected onto a reverse-phase C18 column and the resultant peaks detected on a LC/MS/MS equipped with a turbo ionspray ionization source. Sample concentrations below the limit of quantification (BLQ) were treated as zero for PK calculations. PK parameters were estimated from individual animals using noncompartmental analysis of the concentration-time data (Phoenix WinNonLin software, version 64; Pharsight, Mountain View, CA). The elimination rate constant (k) was calculated as the absolute value of the slope of the linear regression of logarithm (log) of the concentration versus time for the last three data points of the concentration-time profiles. Apparent elimination half-life (t1/2) values were calculated as ln(2)/k. Area under the concentration-time curve (AUC) values were estimated using linear trapezoidal method. AUCt values were calculated from the dosing time to the last measurable concentration. AUC∞ values were calculated as the sum of the corresponding AUCt and the ratio of the last detectable concentration divided by k. Plasma clearance (CL) was calculated from Dose/AUC∞. Mean resident time extrapolated to infinity (MRT∞) was estimated by moment analysis. Vss was calculated from MRT∞×CL. Maximum concentration (Cmax) and time to reach Cmax (tmax) were recorded as observed. As this was a cross-over study, bioavailability was calculated dAUC∞,po/dAUC∞,iv×100% where dAUC was the dose normalized AUC value from the same animal given IV and PO dose. Data for compounds tested are provided in Table G. Compounds tested were prepared in accordance with the synthetic procedures described herein.

Turning to `C[C@H]1CC[C@H](N2CC(=O)N(Cc3ccc(F)c(F)c3)C3(CN(C=O)C3)C2=O)CC1` [Compound 4, 5-(3,4-difluorobenzyl)-8-((1r,4r)-4-methylcyclohexyl)-6,9-dioxo-2,5,8-triazaspiro[3.5]nonane-2-carbaldehyde], the IC10 in data set [1] turned out to be 284 nM. In data set [1], the IC50 is 2760 nM. The “(% Activity NADPH T0)/(% Activity NADPH T30)” value at CYP2C9 (CYP2C9, 25 μM) came to 1.0; at CYP2C9 (CYP2C9, 50 μM), 0.9; at CYP2C8 (CYP2C8, 25 μM), 1.0; at CYP2C8 (CYP2C8, 50 μM), 1.2; at CYP2C19 (CYP2C19, 25 μM), 1.4; on CYP2C19 (CYP2C19, 50 μM) it was 1.1. Besides, at CYP2C19 (CYP2C19, 50 μM, listed as compound 4), the “(% Activity NADPH T0)/(% Activity NADPH T30)” value was “no change in activity”.

Turning to `Cc1cc(CN2C(=O)CN([C@H]3CC[C@H](C)CC3)C(=O)C23CN(C(N)=O)C3)ccc1F` [Compound 6, 5-(4-fluoro-3-methylbenzyl)-8-((1r,4r)-4-methylcyclohexyl)-6,9-dioxo-2,5,8-triazaspiro[3.5]nonane-2-carboxamide], at CYP2C9 (CYP2C9, 25 μM), the “(% Activity NADPH T0)/(% Activity NADPH T30)” value is listed as 1.2; the activity at 30 min, 25 µM stood at 41%; the activity at 0 min, 25 µM came out at 48%. Further, on CYP2C9 (CYP2C9, 50 μM), the “(% Activity NADPH T0)/(% Activity NADPH T30)” value is 1.0; the activity at 30 min, 50 µM amounted to 33%; the activity at 0 min, 50 µM worked out at 34%. For the same compound, in data set [2], the clearance was found to be 9.08 mL/min/kg, the Vd was 3.98 L/kg and the half-life is 7.11 h. Also, on CYP2C8 (CYP2C8, 25 μM), the “(% Activity NADPH T0)/(% Activity NADPH T30)” value worked out at 0.9; the activity at 30 min, 25 µM was 88%; the activity at 0 min, 25 µM turned out to be 79%. For the same compound, on CYP2C8 (CYP2C8, 50 μM), the “(% Activity NADPH T0)/(% Activity NADPH T30)” value stood at 1.1; the activity at 30 min, 50 µM came to 80%; the activity at 0 min, 50 µM is 86%. For the same compound, at CYP2C19 (CYP2C19, 25 μM), the “(% Activity NADPH T0)/(% Activity NADPH T30)” value came to 1.2; the activity at 30 min, 25 µM turned out to be 89%; the activity at 0 min, 25 µM worked out at 105%. Besides, at CYP2C19 (CYP2C19, 50 μM), the “(% Activity NADPH T0)/(% Activity NADPH T30)” value stood at 1.1; the activity at 30 min, 50 µM turned out to be 92%; the activity at 0 min, 50 µM is 100%.

In the case of `C[C@H]1CC[C@H](N2CC(=O)N(Cc3ccc(F)c(Cl)c3)C3(CN(C(N)=O)C3)C2=O)CC1` [Compound 7, 5-(3-chloro-4-fluorobenzyl)-8-((1r,4r)-4-methylcyclohexyl)-6,9-dioxo-2,5,8-triazaspiro[3.5]nonane-2-carboxamide], the “(% Activity NADPH T0)/(% Activity NADPH T30)” value is recorded as 1.3 at CYP2C9 (CYP2C9, 25 μM); 1.4 on CYP2C9 (CYP2C9, 50 μM); 1.3 at CYP2C9 (CYP2C9, 50 μM, listed as compound 7); 1.1 at CYP2C8 (CYP2C8, 25 μM); 1.1 at CYP2C8 (CYP2C8, 50 μM); 1.0 at CYP2C19 (CYP2C19, 25 μM). Moreover, the “(% Activity NADPH T0)/(% Activity NADPH T30)” value on CYP2C19 (CYP2C19, 50 μM) came to 1.0. Moreover, the activity at 30 min, 25 µM at CYP2C9 (CYP2C9, 25 μM) was found to be 75%; at CYP2C8 (CYP2C8, 25 μM), 64%; at CYP2C19 (CYP2C19, 25 μM) it was 87%. The activity at 0 min, 25 µM at CYP2C9 (CYP2C9, 25 μM) was 94%; at CYP2C8 (CYP2C8, 25 μM), 72%; at CYP2C19 (CYP2C19, 25 μM), 87%. The activity at 30 min, 50 µM was 61% at CYP2C9 (CYP2C9, 50 μM); 103% at CYP2C8 (CYP2C8, 50 μM); 83% on CYP2C19 (CYP2C19, 50 μM). In addition, the activity at 0 min, 50 µM turned out to be 87% on CYP2C9 (CYP2C9, 50 μM); 109% on CYP2C8 (CYP2C8, 50 μM); 82% at CYP2C19 (CYP2C19, 50 μM). Besides, in data set [2], the clearance was determined as 9.22 mL/min/kg. Besides, the Vd in data set [2] came out at 6.33 L/kg. For the same compound, in data set [2], the half-life was 10.9 h.

The term IC10 denotes the point of the concentration-response curve where the effect stands at 10%. One may read the IC50 as the concentration that gives 50% inhibition. Read a high IC50 as a need for much substance. Broadly, the clearance is the volume of plasma or blood freed of the substance per unit of time. High values mean a high capacity for elimination, low ones a low capacity for elimination.

For the origin of these results see US12286437B2, “Cardiac sarcomere inhibitors” (Cytokinetics, Inc., priority 2021, dated 2025).
